Experimental data published in article PMC12173412 (PLOS Neglected Tropical Diseases, 2025).

Assays:
[1] = molecular target: Niemann-Pick type C2 (NPC2); format: binding, Haemaphysalis longicornis
[2] = molecular target: Odor Binding Protein-like (OBPL); set-up: species or system Haemaphysalis longicornis
[3] = molecular target: Niemann-Pick type C2 (NPC2); format: binding, Haemaphysalis longicornis; remark: listed apart in the source
[4] = molecular target: Odor Binding Protein-like (OBPL); set-up: species or system Haemaphysalis longicornis; remark: listed apart in the source

| Structure (SMILES) | Kd [1] [µM] | Kd [2] [µM] | Ki [3] [µM] | Ki [4] [µM] |
| --- | --- | --- | --- | --- |
| c1ccc(Nc2cccc3ccccc23)cc1 [1-NPN] | 3.18 | 2.56 | – | – |
| Cc1c[nH]c2ccccc12 [3-methylindole] | – | – | 15.4 | 4.19 |
| c1ccc2[nH]ccc2c1 [indole] | – | – | 10.3 | 2.26 |
